Measurements reported in paper PMC12472322, “Structure–Activity Relationship Study of 3-Alkynyl-6-aryl-isothiazolo[4,3-b]pyridines as Dual Inhibitors of the Lipid Kinases PIKfyve and PIP4K2C” (Pharmaceuticals, 2025).

Tests used:
U-87 MG cells = settings: half-maximal cytotoxic concentration
VEEV (TC-83) = assay: microbe, parasite or virus in culture; assay type: cell-based; settings: Venezuelan equine encephalitis virus, U-87 MG, 18 h, read-out: VEEV (TC-83) EC50
SARS-CoV-2 = assay: microbe, parasite or virus in culture; assay type: cell-based, severe acute respiratory syndrome coronavirus 2; settings: for EC50: Severe acute respiratory syndrome coronavirus 2, VeroE6/TMPRSS2, 24 h, read-out: SARS-CoV2 EC50
PIKfyve = target: T1, PIKfyve (Homo sapiens, UniProt Q9Y2I7); assay: biochemical PIKfyve mobility shift assay (Nanosyn)
T1 construct: purchased Nanosyn, Santa Clara, CA, USA (contract assay service)

[1] = cell viability (AlamarBlue) in SARS-CoV-2-infected Vero E6/TMPRSS2 cells; assay type: cell-based; settings: African green monkey, Vero E6/TMPRSS2 cells infected with SARS-CoV-2, half-maximal cytotoxic concentration, read-out: SARS-CoV2 CC50
PIP4K2C = target: T2, PIP4K2C (Homo sapiens, UniProt Q8TBX8); assay: PIP4K2C binding assay (DiscoverX/Kinome platform)
T2 sequence (Q8TBX8 1-421): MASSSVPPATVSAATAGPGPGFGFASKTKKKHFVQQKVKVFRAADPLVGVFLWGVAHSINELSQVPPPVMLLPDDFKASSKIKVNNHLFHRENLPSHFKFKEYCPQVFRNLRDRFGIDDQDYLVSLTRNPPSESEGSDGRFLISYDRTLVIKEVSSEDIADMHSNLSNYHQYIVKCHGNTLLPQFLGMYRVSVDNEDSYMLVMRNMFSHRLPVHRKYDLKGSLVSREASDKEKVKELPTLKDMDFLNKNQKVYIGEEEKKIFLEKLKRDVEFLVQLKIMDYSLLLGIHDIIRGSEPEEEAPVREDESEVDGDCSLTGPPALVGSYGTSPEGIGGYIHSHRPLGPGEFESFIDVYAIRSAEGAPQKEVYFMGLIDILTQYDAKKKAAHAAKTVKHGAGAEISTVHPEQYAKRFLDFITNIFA

NCI-H460 = assay: cell proliferation assay (MTS, 72 h); settings: Homo sapiens, NCI-H460, 72 h, read-out: CC50 NCI-H460
HL-60 = assay: cell proliferation assay (MTS, 72 h); settings: Homo sapiens, HL-60, 72 h, read-out: CC50 HL-60
LN-229 = assay: cell proliferation assay (MTS, 72 h); settings: Homo sapiens, LN-229, 72 h, read-out: CC50 LN-229
DND-41 = assay: cell proliferation assay (MTS, 72 h); settings: DND41, 72 h, read-out: CC50 DND-41
K-562 = assay: cell proliferation assay (MTS, 72 h); settings: Homo sapiens, K562, 72 h, read-out: CC50 K-562
Capan-1 = assay: cell proliferation assay (MTS, 72 h); settings: Homo sapiens, CAPAN-1, 72 h, read-out: CC50 Capan-1
Z-138 = assay: cell proliferation assay (MTS, 72 h); settings: Homo sapiens, Z-138, 72 h, read-out: CC50 Z-138
HCT-116 = assay: cell proliferation assay (MTS, 72 h); settings: Homo sapiens, HCT-116, 72 h, read-out: CC50 HCT-116

T1 sequence (Q9Y2I7 whole entry): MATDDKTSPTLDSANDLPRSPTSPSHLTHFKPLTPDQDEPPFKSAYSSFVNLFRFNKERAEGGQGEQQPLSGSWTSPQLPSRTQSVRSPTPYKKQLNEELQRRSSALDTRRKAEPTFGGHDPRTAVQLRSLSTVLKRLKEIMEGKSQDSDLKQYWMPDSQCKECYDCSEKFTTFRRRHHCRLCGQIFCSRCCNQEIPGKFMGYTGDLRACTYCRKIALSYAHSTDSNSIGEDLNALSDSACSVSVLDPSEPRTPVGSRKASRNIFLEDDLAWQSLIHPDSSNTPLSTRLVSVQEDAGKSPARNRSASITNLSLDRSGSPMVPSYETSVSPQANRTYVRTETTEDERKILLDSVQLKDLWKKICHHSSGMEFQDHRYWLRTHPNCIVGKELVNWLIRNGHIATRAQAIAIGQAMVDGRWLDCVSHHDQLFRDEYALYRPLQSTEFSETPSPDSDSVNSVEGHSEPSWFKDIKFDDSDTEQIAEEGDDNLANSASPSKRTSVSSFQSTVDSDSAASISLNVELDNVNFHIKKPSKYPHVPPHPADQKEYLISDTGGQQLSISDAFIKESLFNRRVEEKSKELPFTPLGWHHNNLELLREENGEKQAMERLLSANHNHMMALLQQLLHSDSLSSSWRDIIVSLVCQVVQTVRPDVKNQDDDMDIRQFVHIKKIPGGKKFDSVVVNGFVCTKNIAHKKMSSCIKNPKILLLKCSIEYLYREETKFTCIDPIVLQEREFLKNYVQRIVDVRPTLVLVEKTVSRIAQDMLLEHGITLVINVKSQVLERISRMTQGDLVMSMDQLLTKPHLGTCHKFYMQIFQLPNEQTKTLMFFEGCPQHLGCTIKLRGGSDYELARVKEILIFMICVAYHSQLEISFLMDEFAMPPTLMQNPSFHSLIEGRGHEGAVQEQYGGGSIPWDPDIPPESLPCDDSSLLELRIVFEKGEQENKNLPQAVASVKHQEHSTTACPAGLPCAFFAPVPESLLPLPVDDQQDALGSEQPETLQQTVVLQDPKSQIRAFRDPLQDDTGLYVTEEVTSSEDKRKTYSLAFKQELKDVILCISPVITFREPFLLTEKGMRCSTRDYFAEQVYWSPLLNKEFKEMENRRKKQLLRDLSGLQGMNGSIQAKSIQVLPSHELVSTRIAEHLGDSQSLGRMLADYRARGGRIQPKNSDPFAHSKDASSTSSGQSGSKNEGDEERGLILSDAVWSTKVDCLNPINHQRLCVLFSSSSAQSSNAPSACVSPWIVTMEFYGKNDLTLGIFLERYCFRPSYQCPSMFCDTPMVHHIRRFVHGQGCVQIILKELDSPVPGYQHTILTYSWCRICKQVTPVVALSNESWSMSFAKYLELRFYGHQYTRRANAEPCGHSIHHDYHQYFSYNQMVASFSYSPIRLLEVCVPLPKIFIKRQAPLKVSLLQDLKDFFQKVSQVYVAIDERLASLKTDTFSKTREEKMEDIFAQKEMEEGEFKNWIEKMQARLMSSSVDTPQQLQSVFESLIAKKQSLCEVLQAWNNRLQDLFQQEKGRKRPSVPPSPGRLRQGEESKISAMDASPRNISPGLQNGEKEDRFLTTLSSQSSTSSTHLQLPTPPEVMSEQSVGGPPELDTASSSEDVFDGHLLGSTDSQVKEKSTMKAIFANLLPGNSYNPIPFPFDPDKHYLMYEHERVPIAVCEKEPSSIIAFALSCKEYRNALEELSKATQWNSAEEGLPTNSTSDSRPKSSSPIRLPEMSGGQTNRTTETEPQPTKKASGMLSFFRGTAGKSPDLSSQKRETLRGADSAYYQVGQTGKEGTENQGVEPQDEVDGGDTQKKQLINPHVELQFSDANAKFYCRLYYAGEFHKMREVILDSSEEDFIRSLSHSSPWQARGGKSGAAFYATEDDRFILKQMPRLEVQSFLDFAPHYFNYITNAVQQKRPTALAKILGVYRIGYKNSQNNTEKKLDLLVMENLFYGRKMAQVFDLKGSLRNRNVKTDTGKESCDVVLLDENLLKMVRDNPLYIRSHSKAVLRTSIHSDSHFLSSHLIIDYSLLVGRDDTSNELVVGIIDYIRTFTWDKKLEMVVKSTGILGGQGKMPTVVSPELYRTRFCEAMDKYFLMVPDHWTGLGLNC

Structure (SMILES)	VEEV (TC-83) CC50 (U-87 MG cells) [nM]	EC50 (VEEV (TC-83)) [nM]	EC50 (SARS-CoV-2) [nM]	IC50 (PIKfyve; Tables 1-4 and text) [nM]	CC50 [1] [nM]	Kd (PIP4K2C) [nM]	IC50 (PIKfyve; Table 5 column) [nM]	SARS-CoV-2 screening, result in words (SARS-CoV-2; Vero E6/TMPRSS2 cells)	fold less potent on PIKfyve relative to RMC-113 (PIKfyve; ratio of IC50 values) [fold]	CC50 (NCI-H460) [nM]	CC50 (HL-60) [nM]	CC50 (LN-229) [nM]	CC50 (DND-41) [nM]	CC50 (K-562) [nM]	CC50 (Capan-1) [nM]	CC50 (Z-138) [nM]	CC50 (HCT-116) [nM]
Fc1ccccc1-c1cnc2c(C#Cc3cccnc3)snc2c1 [Compound 3h, 6-(2-Fluorophenyl)-3-(pyridin-3-ylethynyl)isothiazolo[4,3-b]pyridine]	>20000	6930 ± 130	1340 ± 500	8.8	> 20000												
COc1ccncc1C#Cc1snc2cc(-c3ccc(OC)c(OC)c3)cnc12 [Compound 7o, 6-(3,4-Dimethoxyphenyl)-3-((4-methoxypyridin-3-yl)ethynyl)isothiazolo[4,3-b]pyridine]	7690 ± 1	920 ± 80		19	< 10000	230	19										
COc1ccc(-c2cnc3c(C#Cc4ccc(C#N)nc4)snc3c2)cc1OC [Compound 7q, 5-((6-(3,4-Dimethoxyphenyl)isothiazolo[4,3-b]pyridin-3-yl)ethynyl)picolinonitrile]				> 10000		> 30000											
COc1ccc(-c2cnc3c(C#Cc4cnc5ccccc5c4)snc3c2)cc1OC [Compound 7w, 6-(3,4-Dimethoxyphenyl)-3-(quinolin-3-ylethynyl)isothiazolo[4,3-b]pyridine]	>10000	2080 ± 100		5690	< 10000	2000	5690	only cytotoxicity was observed	700								
Fc1ccc(-c2cnc3c(C#Cc4cccnc4)snc3c2)cc1 [Compound 3g, 6-(4-Fluorophenyl)-3-(pyridin-3-ylethynyl)isothiazolo[4,3-b]pyridine]				10						1460 ± 360	1510 ± 710	4390 ± 940	3060 ± 1710	5180 ± 480	730 ± 230	1030 ± 200	810 ± 160
Clc1cccc(-c2cnc3c(C#Cc4cccnc4)snc3c2)c1 [Compound 3i, 6-(3-Chlorophenyl)-3-(pyridin-3-ylethynyl)isothiazolo[4,3-b]pyridine]				21		180	21										
COc1cccc(-c2cnc3c(C#Cc4cccnc4)snc3c2)c1 [Compound 3a, 6-(3-Methoxyphenyl)-3-(pyridin-3-ylethynyl)isothiazolo[4,3-b]pyridine]	>10000	6880 ± 330		6.8	< 10000	190	6.8										
COc1cc(-c2cnc3c(C#Cc4cccnc4)snc3c2)ccc1N [Compound 3f, 2-Methoxy-4-(3-(pyridin-3-ylethynyl)isothiazolo[4,3-b]pyridin-6-yl)aniline]	>20000	260 ± 80	2740 ± 40	2.8	> 20000	44	2.8										
COc1cc(-c2cnc3c(C#Cc4cccnc4)snc3c2)ccc1C(=O)O [Compound 4, 2-Methoxy-4-(3-(pyridin-3-ylethynyl)isothiazolo[4,3-b]pyridin-6-yl)benzoic acid]	>10000	8700 ± 1700	360 ± 190	49	> 20000	68	49										
C(#Cc1snc2cc(-c3ccc(OCCN4CCOCC4)cc3)cnc12)c1cccnc1 [Compound 5a, 4-(2-(4-(3-(Pyridin-3-ylethynyl)isothiazolo[4,3-b]pyridin-6-yl)phenoxy)ethyl)morpholine]	>10000	310 ± 10	5630 ± 970	7.1	> 20000												
Ic1cccc(/C=N/Nc2nc(N3CCOCC3)nc(N(c3ccccc3)c3ccccc3)n2)c1 [Vacuolin-1, reference compound]										1460 ± 160	26400 ± 1480	6350 ± 1800	24100 ± 1210	17200 ± 3080	900 ± 130	16600 ± 1310	1870 ± 750
COc1ccc(-c2cnc3c(C#Cc4cncc(F)c4)snc3c2)cc1OC [Compound 7r, 6-(3,4-Dimethoxyphenyl)-3-((5-fluoropyridin-3-yl)ethynyl)isothiazolo[4,3-b]pyridine]	>10000	1850 ± 120	1920 ± 520	98	> 20000	110	98										
COCCNC(=O)c1cccc(-c2cnc3c(C#Cc4cccnc4)snc3c2)c1 [Compound 3s, N-(2-Methoxyethyl)-3-(3-(pyridin-3-ylethynyl)isothiazolo[4,3-b]pyridin-6-yl)benzamide]	>10000	400 ± 80	5650 ± 1490	1.9	> 20000	30	1.9										
COc1ccccc1-c1cnc2c(C#Cc3cccnc3)snc2c1 [Compound 3b, 6-(2-Methoxyphenyl)-3-(pyridin-3-ylethynyl)isothiazolo[4,3-b]pyridine]				6.8						2970 ± 750	1480 ± 1130	3280 ± 1240	3920 ± 720	5270 ± 590	1020 ± 90	1810 ± 690	1020 ± 1240
COC(=O)c1cncc(C#Cc2snc3cc(-c4ccc(OC)c(OC)c4)cnc23)c1 [Compound 7m, Methyl 5-((6-(3,4-dimethoxyphenyl)isothiazolo[4,3-b]pyridin-3-yl)ethynyl)nicotinate]	>10000	1160 ± 1	2560 ± 860	120	> 20000												
C(#Cc1snc2cc(-c3ccc(OCCN4CCCC4)cc3)cnc12)c1cccnc1 [Compound 5b, 3-(Pyridin-3-ylethynyl)-6-(4-(2-(pyrrolidin-1-yl)ethoxy)phenyl)isothiazolo[4,3-b]pyridine]	>10000	710 ± 90	1420 ± 140	5.5	> 20000												
COc1ccc(-c2cnc3c(C#Cc4ccccc4F)snc3c2)cc1OC [Compound 7e, 6-(3,4-Dimethoxyphenyl)-3-((2-fluorophenyl)ethynyl)isothiazolo[4,3-b]pyridine]	>20000	16800 ± 1250	550 ± 150	62	15700 ± 1340	280	62										
